Assay results from ChEMBL document CHEMBL1201862, “PubChem BioAssay data set” (2004).
The source made the active and inactive calls.

Experiments:
[1] = molecular target: T1, Oxysterols receptor LXR-beta (Homo sapiens, UniProt P55055); assay type: functional, cell-based
T1 sequence (P55055 whole entry): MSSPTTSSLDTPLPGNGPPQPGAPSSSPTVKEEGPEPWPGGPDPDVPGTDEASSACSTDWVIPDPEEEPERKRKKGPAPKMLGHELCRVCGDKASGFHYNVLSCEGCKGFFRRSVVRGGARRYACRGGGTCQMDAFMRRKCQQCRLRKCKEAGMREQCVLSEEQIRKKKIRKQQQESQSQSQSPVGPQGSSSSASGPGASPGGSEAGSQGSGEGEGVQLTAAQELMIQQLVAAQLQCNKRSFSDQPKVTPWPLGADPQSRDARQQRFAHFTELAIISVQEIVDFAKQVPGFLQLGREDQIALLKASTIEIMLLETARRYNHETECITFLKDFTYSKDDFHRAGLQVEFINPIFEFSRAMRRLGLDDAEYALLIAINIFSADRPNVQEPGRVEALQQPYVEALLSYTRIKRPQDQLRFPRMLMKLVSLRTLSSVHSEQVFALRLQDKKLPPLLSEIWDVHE

[2] = molecular target: T2, Ubiquitin carboxyl-terminal hydrolase BAP1 (Homo sapiens, UniProt Q92560); assay: BAP1 deubiquitinase inhibitors, dose response, biochemical (AID 714); assay type: functional
T2 sequence (Q92560 whole entry): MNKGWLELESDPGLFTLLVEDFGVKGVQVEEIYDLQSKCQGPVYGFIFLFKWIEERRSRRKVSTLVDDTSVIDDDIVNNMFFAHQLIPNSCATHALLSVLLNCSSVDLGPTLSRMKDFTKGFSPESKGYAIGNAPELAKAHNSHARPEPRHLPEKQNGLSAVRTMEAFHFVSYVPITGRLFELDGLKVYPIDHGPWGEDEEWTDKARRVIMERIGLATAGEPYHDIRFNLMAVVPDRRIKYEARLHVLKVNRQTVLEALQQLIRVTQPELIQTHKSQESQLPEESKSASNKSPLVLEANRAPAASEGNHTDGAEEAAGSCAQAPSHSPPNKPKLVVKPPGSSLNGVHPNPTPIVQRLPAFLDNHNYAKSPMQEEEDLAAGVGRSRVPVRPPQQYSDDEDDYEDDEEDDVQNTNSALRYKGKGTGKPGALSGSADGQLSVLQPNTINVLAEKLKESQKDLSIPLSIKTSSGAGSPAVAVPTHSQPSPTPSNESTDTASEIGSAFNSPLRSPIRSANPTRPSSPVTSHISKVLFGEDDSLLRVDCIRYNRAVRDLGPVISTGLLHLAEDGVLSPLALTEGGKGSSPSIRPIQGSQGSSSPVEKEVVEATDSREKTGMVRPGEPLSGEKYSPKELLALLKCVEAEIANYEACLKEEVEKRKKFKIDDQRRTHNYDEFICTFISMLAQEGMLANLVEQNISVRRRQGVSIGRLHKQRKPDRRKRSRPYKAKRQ

[3] = ZM109 Env clade C HIV-1 fusion inhibitors, dose response, HeLa effector, CEM target cells, luciferase, cherry-pick (AID 652058); assay type: functional, cell-based
[4] = inhibitors of clade B AD8 Env fusion, dose response, cell-based, cherry-pick (AID 652062); assay type: functional;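 also: luciferase signal from cell-cell fusion driven by HIV-1 clade B AD8 Env; potency is for inhibitors of fusion seen as a drop in luminescence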
[5] = off-target signal loss in HeLa-CEM21 co-culture – HeLa F-luc CTL cells, cherry-picked, counter-screen for HIV-1 Env fusion inhibitor project, dose response (AID 652040); assay type: functional, cell-based;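 also: potency for signal decrease marking cytotoxic or nonspecific inhibition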
[6] = inhibitors of HIV Env-driven cell fusion, dose response, cherry-pick (AID 652057); assay type: functional, cell-based
[7] = molecular target: T3, Tyrosine-protein phosphatase non-receptor type 7 (Homo sapiens, UniProt P35236); assay: inhibitors of human HePTP phosphatase, […], biochemical, absorbance, leukemia target (AID 521); assay type: functional
T3 sequence (P35236 whole entry): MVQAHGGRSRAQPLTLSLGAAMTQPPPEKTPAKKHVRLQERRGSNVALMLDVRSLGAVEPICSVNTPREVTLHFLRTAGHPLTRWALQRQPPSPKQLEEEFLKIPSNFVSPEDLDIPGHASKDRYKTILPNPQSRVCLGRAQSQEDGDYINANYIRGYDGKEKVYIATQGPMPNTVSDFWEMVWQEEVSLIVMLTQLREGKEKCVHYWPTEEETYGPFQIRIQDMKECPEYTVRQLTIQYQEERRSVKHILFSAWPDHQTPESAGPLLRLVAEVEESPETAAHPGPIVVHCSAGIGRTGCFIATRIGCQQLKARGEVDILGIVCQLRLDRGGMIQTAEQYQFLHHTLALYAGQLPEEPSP

[8] = molecular target: T4, Heat shock factor protein 1 (Mus musculus, UniProt P38532); assay: inhibition of MG132-induced HSE-luciferase signal, confirmation, cell-based, NIH3T3, luminescence, dose retest (AID 2382); assay type: functional;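 also: NIH3T3 fibroblasts with HSF1-driven luciferase reporter stressed by proteasome inhibitor MG132; luminescence from HSF1-driven luciferase expression after 8 hours of MG132 stress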
T4 sequence (P38532 whole entry): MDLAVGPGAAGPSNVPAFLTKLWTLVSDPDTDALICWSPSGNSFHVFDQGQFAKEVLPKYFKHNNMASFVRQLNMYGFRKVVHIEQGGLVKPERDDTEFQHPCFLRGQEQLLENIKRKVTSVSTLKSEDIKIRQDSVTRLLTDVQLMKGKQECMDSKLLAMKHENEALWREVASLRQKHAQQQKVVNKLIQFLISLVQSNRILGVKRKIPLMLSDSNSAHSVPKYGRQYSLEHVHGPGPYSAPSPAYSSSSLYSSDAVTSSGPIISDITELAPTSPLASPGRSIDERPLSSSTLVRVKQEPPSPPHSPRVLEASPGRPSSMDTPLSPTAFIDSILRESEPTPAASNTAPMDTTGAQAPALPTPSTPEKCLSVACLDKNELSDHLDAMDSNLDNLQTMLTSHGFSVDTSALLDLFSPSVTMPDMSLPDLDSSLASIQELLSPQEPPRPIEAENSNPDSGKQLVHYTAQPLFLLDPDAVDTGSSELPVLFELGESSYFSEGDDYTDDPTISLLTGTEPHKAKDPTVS

Estrogen receptor beta [9] = molecular target: T5, Estrogen receptor beta (Homo sapiens, UniProt Q92731); assay: ERβ–SRC-3 coactivator interaction inhibitors, confirmation, orthogonal assay, biochemical, ELISA, streptavidin-HRP readout (AID 1060)
T5 sequence (Q92731 whole entry): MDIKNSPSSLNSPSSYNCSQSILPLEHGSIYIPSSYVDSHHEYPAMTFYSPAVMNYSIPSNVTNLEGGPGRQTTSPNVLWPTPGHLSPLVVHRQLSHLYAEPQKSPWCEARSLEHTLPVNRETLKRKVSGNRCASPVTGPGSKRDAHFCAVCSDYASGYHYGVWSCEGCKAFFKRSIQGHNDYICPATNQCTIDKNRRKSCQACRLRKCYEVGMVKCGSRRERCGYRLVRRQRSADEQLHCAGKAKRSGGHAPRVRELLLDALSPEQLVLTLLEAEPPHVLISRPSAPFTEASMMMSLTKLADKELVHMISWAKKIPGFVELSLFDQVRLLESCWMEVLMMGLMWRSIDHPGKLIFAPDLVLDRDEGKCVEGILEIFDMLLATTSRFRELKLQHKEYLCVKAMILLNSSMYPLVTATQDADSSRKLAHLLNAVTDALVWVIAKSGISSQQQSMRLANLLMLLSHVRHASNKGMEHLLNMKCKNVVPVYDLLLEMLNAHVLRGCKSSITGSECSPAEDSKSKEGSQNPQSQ

Estrogen receptor beta [10] = molecular target: T5, Estrogen receptor beta
[11] = molecular target: T6, Carboxy-terminal domain RNA polymerase II polypeptide A small phosphatase 1 (Homo sapiens, UniProt Q9GZU7); assay: inhibitors of CTDSP1, concentration-response testing, biochemical assay, absorbance-based, actives from ultra-high-throughput screening (AID 540297); assay type: functional
T6 sequence (Q9GZU7 whole entry): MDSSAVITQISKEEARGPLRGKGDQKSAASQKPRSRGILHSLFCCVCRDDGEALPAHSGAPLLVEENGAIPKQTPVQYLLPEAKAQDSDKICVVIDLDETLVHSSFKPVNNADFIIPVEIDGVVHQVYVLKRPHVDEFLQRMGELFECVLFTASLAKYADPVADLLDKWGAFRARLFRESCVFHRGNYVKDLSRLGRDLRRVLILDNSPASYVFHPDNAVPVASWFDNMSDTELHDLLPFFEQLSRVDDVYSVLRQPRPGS

Streptokinase A = molecular target: T7, Streptokinase A (Streptococcus pyogenes serotype M1, UniProt P10520); assay: S. pyogenes streptokinase expression inhibitors, potency, dose response, plasminogen activation absorbance, OD405 (AID 1914); assay type: functional, Streptococcus pyogenes M1 GAS;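 also: secreted streptokinase activity via plasminogen activation per viability signal from cell pellet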
T7 sequence (P10520 whole entry): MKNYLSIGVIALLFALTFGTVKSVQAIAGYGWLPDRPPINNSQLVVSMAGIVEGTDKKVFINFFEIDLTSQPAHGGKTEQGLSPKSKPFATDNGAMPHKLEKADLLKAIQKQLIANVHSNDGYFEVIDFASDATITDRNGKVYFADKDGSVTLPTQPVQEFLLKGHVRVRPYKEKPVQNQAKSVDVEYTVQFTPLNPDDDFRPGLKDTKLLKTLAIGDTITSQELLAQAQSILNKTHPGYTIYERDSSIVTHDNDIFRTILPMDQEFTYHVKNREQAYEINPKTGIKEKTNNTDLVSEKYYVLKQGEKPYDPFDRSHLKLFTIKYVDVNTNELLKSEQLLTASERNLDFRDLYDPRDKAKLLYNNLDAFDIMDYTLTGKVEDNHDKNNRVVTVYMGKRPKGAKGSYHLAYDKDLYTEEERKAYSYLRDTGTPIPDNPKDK

Streptococcus = assay: Group A Streptococcus viability loss, dose response, counter-screen for streptokinase expression inhibitor project, luminescence, BacTiterGlo (AID 1915); assay type: functional, organism-based;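 also: potency for reduction of bacterial viability or growth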
[12] = system: Streptococcus sp. 'group A'; assay: growth inhibition of control SK(-) GAS strain, dose response, counter-screen for streptokinase expression inhibitor project, luminescence, kanamycin, BacTiterGlo, confirmation (AID 1900); assay type: functional, organism-based
[13] = molecular target: Induced myeloid leukemia cell differentiation protein Mcl-1 (Homo sapiens, UniProt Q07820); assay type: functional
Sequence of Induced myeloid leukemia cell differentiation protein Mcl-1 (Q07820 whole entry): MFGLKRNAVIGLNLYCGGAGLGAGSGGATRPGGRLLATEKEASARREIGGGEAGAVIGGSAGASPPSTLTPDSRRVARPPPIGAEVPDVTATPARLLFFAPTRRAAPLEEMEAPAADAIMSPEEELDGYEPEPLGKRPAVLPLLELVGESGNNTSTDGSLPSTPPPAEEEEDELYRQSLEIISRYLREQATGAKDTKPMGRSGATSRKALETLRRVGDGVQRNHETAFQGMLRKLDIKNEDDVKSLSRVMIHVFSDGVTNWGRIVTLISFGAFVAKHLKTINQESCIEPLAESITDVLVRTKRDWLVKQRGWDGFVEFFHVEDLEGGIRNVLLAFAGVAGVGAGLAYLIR

Prothrombin = Prothrombin (Homo sapiens, UniProt P00734); assay: Thrombin 1536 HTS Dose Response Confirmation. [Related pubchem assays: 1046 (Thrombin 1536 HTS; hits were confirmed in this assay)]; assay type: functional
[14] = molecular target: T1, Oxysterols receptor LXR-beta; assay type: functional, cell-based; remark: listed apart in the source
[15] = molecular target: G-protein coupled receptor 55 (Homo sapiens, UniProt Q9Y2T6); assay: GPR55 agonists via beta-arrestin recruitment, primary screen, imaging, U2OS cells, beta-arrestin-GFP redistribution (AID 1961); assay type: functional
Sequence of G-protein coupled receptor 55 (Q9Y2T6 whole entry): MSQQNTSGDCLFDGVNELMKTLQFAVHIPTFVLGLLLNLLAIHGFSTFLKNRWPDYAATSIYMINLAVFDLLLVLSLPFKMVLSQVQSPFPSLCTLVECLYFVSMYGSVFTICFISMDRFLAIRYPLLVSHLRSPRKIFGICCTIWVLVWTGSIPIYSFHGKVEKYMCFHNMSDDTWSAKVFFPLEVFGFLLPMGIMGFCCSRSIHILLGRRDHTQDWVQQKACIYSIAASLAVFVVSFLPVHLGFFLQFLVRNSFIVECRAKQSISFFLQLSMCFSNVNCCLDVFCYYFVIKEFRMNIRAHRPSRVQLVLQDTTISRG

[16] = cytotoxicity in OVCAR8 ovarian cancer cells, dose response, PAX8 project, cell-based, plate reader, dry powder samples (AID 743197); assay type: functional; details: OVCAR-8
Paired box protein Pax-8 = Paired box protein Pax-8 (Homo sapiens, UniProt Q06710); assay: inhibitors of PAX8-driven TPO luciferase reporter, dose response, RMG-I cells, cherry-pick (AID 687027); assay type: functional, cell-based;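 also: luciferase reporter driven by Pax8 target thyroperoxidase promoter measured by SteadyGlo luminescence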
Sequence of Paired box protein Pax-8 (Q06710 whole entry): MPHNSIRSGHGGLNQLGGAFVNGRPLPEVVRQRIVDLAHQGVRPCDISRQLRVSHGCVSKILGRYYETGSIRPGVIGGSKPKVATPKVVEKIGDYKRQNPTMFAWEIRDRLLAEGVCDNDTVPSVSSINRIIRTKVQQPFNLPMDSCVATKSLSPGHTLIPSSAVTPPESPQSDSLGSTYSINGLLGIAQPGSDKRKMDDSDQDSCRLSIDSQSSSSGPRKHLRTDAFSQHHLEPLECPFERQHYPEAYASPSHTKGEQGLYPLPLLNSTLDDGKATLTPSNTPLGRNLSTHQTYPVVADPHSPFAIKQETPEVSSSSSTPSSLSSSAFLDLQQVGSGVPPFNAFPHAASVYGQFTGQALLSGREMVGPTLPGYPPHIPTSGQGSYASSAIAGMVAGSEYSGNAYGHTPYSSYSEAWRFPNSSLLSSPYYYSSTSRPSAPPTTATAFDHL

[17] = NIH:OVCAR-3 ovarian cancer cell cytotoxicity, dose response, PAX8 inhibitor project, plate reader, dry powder samples (AID 743044); assay type: functional, cell-based
[18] = non-specific cell cytotoxicity, dose response, cytotoxicity control for PAX8 inhibitor project, plate reader, dry powder samples (AID 743021); assay type: functional, cell-based
[19] = inhibitors of SNCA 5'UTR-driven reporter translation, confirmation, H4 neuroglioma cells, luminescence (AID 1988); assay type: functional, cell-based
[20] = Luminescence Cell-Based Dose Response HTS to Identify Inhibitors of 5'UTR Stem-Loop Driven Prion Protein mRNA Translation in H4 Neuroglioblastoma Cells. [Related pubchem assays: 1827 (Project Summary), 1813 (Primary HTS)]; assay type: functional
[21] = inhibitors of firefly luciferase expression or activity, dose response, H4 neuroglioma cells, luminescence (AID 1990); assay type: functional, cell-based
[22] = cytotoxicity in HEK-293T cells, dose response, cytotoxicity control for TCR NF-kB inhibitor project, luminescence, T-cell screen hits (AID 489026); assay type: functional, cell-based;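 also: cells exposed to compound about 14 hours before the viability readout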

Nc1cccc2c1C(=O)N(CCOc1ccccc1F)C2=O
EC50 [1]: > 67.6 µM (inactive)
EC50 (cells): > 67.6 µM (inactive)

CCOC(=O)c1c(NC(=O)c2cccs2)sc(C)c1CC
IC50 [2]: 30.4 µM (not active)

c1ccc2c(c1)OCC(c1csc3ncnc(N4CCOCC4)c13)O2 (stereo unspecified)
AC50 [3]: 11.6 µM (active)
AC50 [4]: 4.95 µM (active)
AC50 [5]: 21.4 µM (active)
AC50 [6]: 4.1 µM (active)
IC50 [7]: > 100 µM (not active)
EC50 [8]: 171 µM (active)

O=C1c2ccccc2-c2onc3c(Oc4ccccc4)cc(O)c1c23
IC50 (Estrogen receptor beta [9]): 37 µM (not active)

COc1ccc2c(=O)c3c(=O)n(Cc4ccco4)c(-c4ccco4)nc3oc2c1
IC50 (Estrogen receptor beta [10]): > 50 µM (not active)
IC50 [11]: 4.9 µM (active)

COC(=O)c1c(NC(=O)Cc2cccs2)sc2c1CCCC2
IC50 (Estrogen receptor beta [9]): 103 µM (not active)
EC50 (Streptokinase A): 17.7 µM (active)
EC50 (Streptococcus): > 150 µM (not active)
IC50 (Estrogen receptor beta [10]): 4.51 µM (active)
EC50 [12]: 20.6 µM (active)
IC50 [13]: 3.35 µM (active)

Cc1c(-c2ccccn2)c(=O)[nH]n1-c1ccc(F)cc1
EC50 [1]: > 67.5 µM (inactive)
EC50 (cells): > 67.5 µM (inactive)

Cc1ccc(N=C2Nc3ccccc3CS2)cc1
EC50 [1]: > 67.5 µM (inactive)

Cc1ccc(NC2=Nc3ccccc3CS2)cc1
EC50 (cells): > 67.5 µM (inactive)

O=C(c1ccc([N+](=O)[O-])cc1)n1nc(-c2ccccc2)nc1NCc1ccc(F)cc1
IC50 (Prothrombin): 0.464 µM (active)

OCCNc1ncnc2c1c(-c1ccccc1)c(-c1ccccc1)n2Cc1ccco1
IC50 [7]: > 100 µM (not active)

CCOC(=O)c1cnc(SCC(=O)Nc2sc(C)c(C)c2C#N)nc1N
IC50 [2]: 18.7 µM (active)

CC(C)C(OC(=O)c1cccs1)C(=O)NCc1ccco1 (stereo unspecified)
IC50 [7]: > 100 µM (not active)

O=c1c2cc(N3CCOCC3)ccc2[nH]c(=S)n1Cc1ccco1
IC50 (Estrogen receptor beta [9]): 6.02 µM (not active)
IC50 (Estrogen receptor beta [10]): > 50 µM (not active)

CC(C)C[C@H](NC(=O)OCC1c2ccccc2-c2ccccc21)C(=O)O
EC50 [14]: > 67.5 µM (inactive)

CC1CCc2[nH]nc(C(=O)O)c2C1 (stereo unspecified)
IC50 (Prothrombin): > 50 µM (not active)

O=C(NCc1ccco1)c1cc2nc(-c3ccc4c(c3)OCO4)cc(C(F)(F)F)n2n1
EC50 [15]: > 32 µM (inactive)
IC50 [2]: 20.4 µM (active)

COc1ccc(N2C(=O)CSC2c2cccc(OC)c2OC)cc1 (stereo unspecified)
IC50 (Prothrombin): > 50 µM (not active)

C[C@@H]1CN([C@@H](C)CO)C(=O)c2cc(NC(=O)Nc3ccc(F)cc3)ccc2O[C@@H](C)CCCCO[C@H]1CN(C)Cc1ccc(C(F)(F)F)cc1
AC50 [16]: 51.7 µM (active)
AC50 (Paired box protein Pax-8): 6.74 µM (active)
AC50 [17]: 16.3 µM (active)
AC50 [18]: 1.84 µM (active)

C[C@H](CO)N1C[C@H](C)[C@H](CN(C)S(=O)(=O)c2ccc(Cl)cc2)OCCCC[C@H](C)Oc2ccc(NC(=O)Nc3ccc(C(F)(F)F)cc3)cc2C1=O
AC50 (Paired box protein Pax-8): 4.52 µM (active)
AC50 [17]: 60 µM (active)
AC50 [18]: 34.6 µM (active)

COc1ccc(/C=c2/sc3n(c2=O)C(c2ccccc2OC)C2=C(N=3)c3ccccc3CC2)cc1O (stereo unspecified)
EC50 [19]: 0.403 µM (active)
AC50 (Paired box protein Pax-8): 2.28 µM (active)
EC50 [20]: 13.9 µM (active)
EC50 [21]: 0.112 µM (active)
AC50 [18]: 52 µM (active)
IC50 [22]: > 80 µM (inactive)
